# Experimental data as given in patent US20140315956A1, “SMALL MOLECULE INHIBITORS OF IL-6 AND USES THEREOF” (NATIONWIDE CHILDREN'S HOSPITAL, priority 2011, published 2014).
# Where “and” joins values, the source holds several entries; their conditions need not be identical. Equal values may be shown once. Read-outs that look alike come from different tables or passages of the source.
# Target: T1, gp130 extracellular domain (recombinant gp130-Fc-HA) (Homo sapiens, UniProt P40189)
# T1 construct: purified gp130 (amino residue 18-615); made in house; host or cells: HEK293T (plasmid from Dr. John J. Krolewski)
# T1 sequence (P40189 18-615): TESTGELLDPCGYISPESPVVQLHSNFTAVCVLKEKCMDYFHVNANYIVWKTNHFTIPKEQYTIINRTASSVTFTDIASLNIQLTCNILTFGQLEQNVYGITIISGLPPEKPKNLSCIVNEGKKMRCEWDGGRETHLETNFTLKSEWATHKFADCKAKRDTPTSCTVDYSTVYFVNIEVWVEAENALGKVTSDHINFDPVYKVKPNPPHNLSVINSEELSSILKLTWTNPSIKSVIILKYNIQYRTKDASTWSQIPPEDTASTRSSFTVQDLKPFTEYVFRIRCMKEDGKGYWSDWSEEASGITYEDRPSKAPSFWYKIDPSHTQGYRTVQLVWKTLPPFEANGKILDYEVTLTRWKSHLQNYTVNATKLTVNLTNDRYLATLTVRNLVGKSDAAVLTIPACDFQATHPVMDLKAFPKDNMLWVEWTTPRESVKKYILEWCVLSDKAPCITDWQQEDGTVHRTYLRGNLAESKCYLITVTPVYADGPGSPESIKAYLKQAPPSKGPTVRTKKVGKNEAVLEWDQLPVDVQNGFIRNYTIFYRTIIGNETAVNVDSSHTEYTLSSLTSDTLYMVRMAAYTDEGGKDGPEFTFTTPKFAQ
# Assay: Surface plasmon resonance direct binding to gp130-Fc-HA
# Procedure: HEK293T cells were grown in media containing DMEM+10% fetal bovine serum (FBS),100 U/ml penicillin and […] streptomycin (Invitrogen) in a humidified 37° C. incubator with 5% CO2. Plasmid DNA expressing gp130-Fc-HA was transfected in the form of calcium phosphate precipitate into HEK293T cells (ten T75 flasks containing 5.5×10^6 cells). The supernatant was harvested sixty hours post transfection and centrifuged to remove residual cells and adjusted to pH 8.0. The supernatant was passed through a 0.45 μm filter. The gp130-Fc-HA tagged protein was immunoprecipitated using anti-HA affinity matrix (Roche Applied Bioscience).A one milliliter column containing anti-HA affinity matrix was equilibrated with 20 mM Tris-HCl, 0.1M NaCl, 0.1 mM EDTA (pH 8.0). The supernatant was applied to the equilibrated column and the column was washed successively with 20 mM Tris-HCl, 1M NaCl (pH 8.0). Bound protein was eluted with HA peptide dissolved in equilibration buffer. The column was regenerated with 0.1 M glycine (pH 2.0). Fractions containing recombinant protein were pooled, dialyzed against HBS buffer [10 mM HEPES (pH 7.4), 0.15 M NaCl, 3 mM EDTA, 0.005% P20] and concentrated by Centricon 30 (Amicon) centrifugation. Protein concentration was determined using Bradford protein assay reagent (Pierce), with bovine serum albumin (BSA, Fisher Scientific) as a standard. The purified recombinant gp130 protein was analyzed using SDS-PAGE and immunoblotting.
# Surface plasmon resonance (SPR) analysis was performed using BIAcore T100. Recombinant gp130-Fc-HA was cross-linked to the flow cell on a carboxymethylated dextran matrix of a CM5 sensor chip (BIAcore) using standard amino group coupling methods according to the manufacturer's instructions. Sodium acetate (10 mM, pH 3.5) gave the best immobilization of the protein on the chip surface and unreactive groups on the chip were blocked by ethanolamine according to the manufacturer's instructions. Approximately 5000 resonance units (RU) of gp130-Fc-HA were cross-linked to the flow cell. HBS+1% DMSO were used in all buffers (running and sample) to avoid background response due to differences in buffer refractive index. For the equilibrium analysis, various concentrations of MDL-A, 1, and 2 were injected for a period of 2 min at a flow rate of 30 μl/min, in series, into flow cells containing covalently bound gp130-fc-HA and reference flow cell. Bound ligand (MDL-A, 1, and 2) in each assay was removed by passing 10 mM glycine (pH 2.2) over the chip surface. Biacore T100 Evaluation 2.0 was used for all interaction analyses. The steady-state equilibrium response (RUeq) was determined from the reference-subtracted sensogram. The kinetics parameter was calculated according to a 1:1 Langmuir binding model (A+B ? AB) by direct fitting of ligand binding sensor grams at multiple concentrations. The dissociation equilibrium constant is defined as dissociation constant (KD)=dissociation rate constant (kd)/association rate constant (ka). KD was determined by scattered analysis of equilibrium-state data obtained at different concentrations of analogues.
# To examine the direct binding and calculation of equilibrium dissociation constant (KD) of MDL-A analogues with gp130 extracellular domain, surface plasmon resonance analysis was done. Protein was covalently cross linked to the dextran matrix of the biosensor chip CM5. Successively, various concentrations of MDL-A and MDL-A analogues were injected into the flow cells containing bound protein and no protein (reference). Interactions were monitored in real time and KD values were calculated by reference-substrated sensogram.
# To examine the direct binding and calculate the equilibrium dissociation constant (KD) of MDL-A analogues with gp130 extracellular domain, surface plasmon resonance analysis was performed. Surface plasmon resonance (SPR) analysis was performed using a BIAcore T100. […]
smiles,measurement,setting,value
"CCCCC1=C(C)C(=O)[C@@](C)(CN2c3ccccc3[C@]3(O)CCO[C@H]23)C1=O [MDL-A, (+)-Madindoline A, reference compound]",Kd,"gp130 extracellular domain, Biacore evaluation software 2.0, read-out: KD",288 µM
same,Kd,"values in running text and figure legend, read-out: dissociation constant (KD)",~300 µM and ~290 µM
